In ChEMBL document CHEMBL1649365, “Molecular modeling studies on imidazo[4,5-b]pyridine derivatives as Aurora A kinase inhibitors using 3D-QSAR and docking approaches” (Eur J Med Chem, 2011):

What follows are compounds tested against T1, Aurora kinase A (Homo sapiens, UniProt O14965) (assay: Inhibition of Aurora A).
T1 sequence (O14965 whole entry): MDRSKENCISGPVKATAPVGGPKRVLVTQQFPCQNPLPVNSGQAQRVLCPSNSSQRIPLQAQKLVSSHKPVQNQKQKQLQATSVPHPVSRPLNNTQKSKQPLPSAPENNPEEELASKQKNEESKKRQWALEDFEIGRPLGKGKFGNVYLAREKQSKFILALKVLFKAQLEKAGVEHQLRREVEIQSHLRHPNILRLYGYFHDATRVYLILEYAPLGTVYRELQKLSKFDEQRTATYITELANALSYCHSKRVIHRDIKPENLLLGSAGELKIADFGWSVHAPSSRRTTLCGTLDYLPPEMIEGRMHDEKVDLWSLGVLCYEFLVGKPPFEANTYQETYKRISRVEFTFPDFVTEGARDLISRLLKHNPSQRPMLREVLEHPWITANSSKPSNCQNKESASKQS

| SMILES | IC50 [nM] |
| --- | --- |
| CC(=O)c1cccc(-c2ccc(-c3nc4ncc(Br)c(N5CCN(Cc6cc(C)on6)CC5)c4[nH]3)cc2)c1 | 14 |
| O=C(CN1CCN(c2c(Br)cnc3[nH]cnc23)CC1)Nc1nccs1 | 81 |
| Cc1cc(CN2CCN(c3c(Br)cnc4[nH]c(-c5ccc(Cn6cccn6)cc5)nc34)CC2)no1 | 10 |
| c1ccc(-c2ccc(-c3nc4cccnc4[nH]3)cc2)nc1 | 4400 |
| CC(c1ccncc1)N1CCN(c2c(Br)cnc3[nH]c(-c4ccc(N(C)C)cc4)nc23)CC1 (configuration not stated) | 55 |
| CN(C)c1ccc(-c2nc3c(N4CCN(CC(=O)Nc5ccccc5)CC4)c(Br)cnc3[nH]2)cc1 | 277 |
| Cc1cc(CN2CCN(c3c(Cl)cnc4nc(-c5ccc(OCCO)cc5)[nH]c34)CC2)no1 | 29 |
| COc1ccc(-c2nc3c(N4CCN(Cc5coc(C(C)C)n5)CC4)c(Br)cnc3[nH]2)cc1 | 81 |
| COc1ccc(-c2nc3c(N4CCN(Cc5ccncc5)CC4)c(Br)cnc3[nH]2)cc1 | 9 |
| Cc1cc(CN2CCN(c3c(Cl)cnc4nc(-c5ccc(N6CCN(C)CC6)cc5)[nH]c34)CC2)no1 | 10 |
| Cc1cc(CN2CCN(c3c(Cl)cnc4nc(-c5ccc(Cn6cccn6)cc5)[nH]c34)CC2)no1 | 3 |
| Cc1cc(CN2CCN(c3c(Br)cnc4[nH]c(-c5ccc(N6CCNCC6)cc5)nc34)CC2)no1 | 10 |
